Where a name gives a salt, the structure may show the parent alone.
Key:
[1] = Toxicity screening using primary cultured hepatocyte (LDH release); format: cell-based, rat; conditions: rat, primary hepatocytes, 24 hr, control 0.5% saline or 0.5% DMSO, read-out: Percent control of LDH release
Procedure: The hepatocytes was prepared from rat liver by collagenase perfusion method and suspension containing 5×10^5 cells/ml were prepared. After cultivation for 24 hr, the suspension was exchanged to the William's Medium E (GIBCO BRL) containing 10 or 100 μM of the compounds of this invention. After cultivation for 24 hr, the activity of lactate dehydrogenase (LDH) released in the medium was measured.

[2] = test system: rats reduced learning ability by tetrabenazine; test: Conditioned avoidance task in the shuttle box (tetrabenazine-treated rats); format: in vivo, rat; conditions: tetrabenazine 1 mg/kg s.c., significance and direction
Procedure: The method described in Life Sci., 58, 817-827 (1996) was used. The effects on conditioned avoidance reflex (CARs) was analyzed in the shuttle box using male and female rats (weighing 200-220 g) whose leaning abilities were reduced by treatment of tetrabenazine. The instrument was constructed, according to the device described in Psychopharmacologia 10, 1-5 (1966) by the Research Institute for Electrical Industry (Budapest, Hungary). The male and female rats (weighing 200-220 g) were trained to cross the berrier under the influence of a conditioned stimulus (CS) (light flash and buzzer sounds). […] And the performance which was not related to this condition was noted as an intersignal reaction (IR). The rats were trained with 100 trials per day for 5 days. One trial consisted of 15 sec intertrial interval. The saline solution of tetrabenazine was administered at a dose of 1 mg/kg subcutaneously before one hour prior to the test and then the solution of the compounds of this invention were administered at the doses of 1, 2, 2.5 and 5 mg/kg subcutaneously with the simultaneous administration of tetrabenazine. The nmbers of CARs, EFs and IRs were automatically counted and evaluated by multi-way analysis of variance (ANOVA).

[3] = test system: dopamine release, striatum; test: Release of biogenic amines from brain tissue: dopamine, striatum; format: in vivo, Wistar rats
Procedure: (§1) The method described in Life Sci., 56, 611-620 (1995) was used. After Wistar rats were decapitated, appropriate brain samples, which were striatun, substantia nigra, tuberculum olfactorium, locus coeruleus and raphe, were removed quickly and soaked in oxygenated (95% O2 and 5% CO2) Krebs solution at 37° C. The composition of Krebs solution was as follows in […]: NaCl 111, KCl 4.7, CaCl2 2.5, MgSO4 1.64, NaHCO3 25, KH2 PO4 1.2, glucose 11, 50 mg/l ascorbic add and 20 mg/l EDTA-2 Na. The preparations, soaked in one organ bath, were as follows: 1) four pieces of striatum (each halved), 2) four pieces of substantia nigra, 3) four pieces of tuberculum olfactorium; 4) eight pieces of locus coeruleus; 5) eight pieces of raphe. After incubation of the appropriate tissue for 20 min, the Krebs solution was replaced, the tissue soaked for 20 min in Krebs solution dissolving the compounds of this invention and the amount of biogenic amine released during this period of time was estimate. The compounds of this invention and PPAP, control compound, were dissolved in saline and were administered subcutaneously before 30 min to removing brain sample. For measuring noradrenaline and dopamine, samples were purified on 60 mg alumina containing micro columns (BDH Chemicals Ltd.) according to the method described in J. Pharmacol. Exp. Ther., 138, 360-372 (1962) For measuring serotonin, samples were purified on 15 mg Sephadex G-10 micro columns (Pharmacia). Dopamine, noradrenaline and serotonin were determined by high performance liquid chromatography (Waters 746 data module) with electrochemical detection (Waters 460 electrochemical detector). Waters Resolve 5μ Spherical C18 3.9×150 mm column was used as separating column and triethylamine-phosphate buffer (pH 5.2), containing 200 mg/l octane sulfonate sodium and 18 mg/l EDTA-2 Na with 6% acetonitrile, was used as mobile phase. The release amount of appropriate amine was noted as nmol/g tissue released for 20 min. deference of means tested by Student's t-test and significant level was set at P<.05.

[4] = test system: dopamine release, tuberculum olfactorium; test: Release of biogenic amines from brain tissue: dopamine, tuberculum olfactorium; format: in vivo, Wistar rats
Procedure: as §1

[5] = test system: noradrenaline release, locus coeruleus; test: Release of biogenic amines from brain tissue: noradrenaline, locus coeruleus; format: in vivo, Wistar rats
Procedure: as §1

[6] = test system: dopamine release, substantia nigra; test: Release of biogenic amines from brain tissue: dopamine, substantia nigra; format: in vivo, Wistar rats
Procedure: as §1

[7] = test system: serotonin release, raphe; test: Release of biogenic amines from brain tissue: serotonin, raphe; format: in vivo, Wistar rats
Procedure: as §1

[8] = biological target: T1, human platelet MAO-B (Homo sapiens, UniProt P27338); test: biochemical; conditions: 10^-5 M; read-out: Inhibition rate of MAO-B
T1 construct: The suspension was used as enzyme for MAO activity assay in blood platelets; from tissue; host or cells: human blood platelets (frozen, thawed and sonicated platelet rich plasma)
T1 sequence (P27338 1-520): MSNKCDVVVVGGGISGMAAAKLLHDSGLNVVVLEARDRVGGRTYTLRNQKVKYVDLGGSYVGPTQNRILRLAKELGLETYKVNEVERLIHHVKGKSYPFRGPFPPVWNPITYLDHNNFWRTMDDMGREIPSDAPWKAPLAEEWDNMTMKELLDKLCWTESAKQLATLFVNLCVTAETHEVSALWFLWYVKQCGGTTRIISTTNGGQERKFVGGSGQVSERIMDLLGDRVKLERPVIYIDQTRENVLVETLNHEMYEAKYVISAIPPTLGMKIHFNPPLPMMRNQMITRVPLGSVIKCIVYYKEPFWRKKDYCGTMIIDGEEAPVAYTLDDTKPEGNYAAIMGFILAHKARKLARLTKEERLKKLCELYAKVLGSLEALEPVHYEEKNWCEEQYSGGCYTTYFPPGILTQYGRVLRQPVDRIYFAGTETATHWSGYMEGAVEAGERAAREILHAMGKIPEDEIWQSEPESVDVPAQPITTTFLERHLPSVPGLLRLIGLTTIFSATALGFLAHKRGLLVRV
Procedure: Human blood added with 3.8% citric acid was centrifuged at 950 rpm for 10 min and platelet rich plasma (PRP) was obtained. The residual blood cell was centrifuged at 3,000 rpm for 10 min and platelet poor plasma (PPP) was obtained. After blood platelets were measured from a part of PRP, PRP and PPP were frozen at -20° C. They were thawed and were sonicated to be dispersed and suspended when MAO activity was measured. The suspension was used as enzyme for MAO activity assay in blood platelets. In addition, almost all of MAO in blood platelets have been known to be B type.
MAO-B activity was determined according to the method described in Biochem. Pharmacol., 14, 1684-1685 (1965). […] The mixture was incubated at 37° C. for 5 min. After 80 μl of PRP or PPP was added to it, the mixture was incubated at 37° C. for 20 min. Thereafter, 120 μl of substrate (0.33 mg/ml kynuramine dihydrobromide) was added thereto. After incubation at 37° C. for 30 min, 800 μl of 10% trichloroacetic acid were added to stop the reaction and the solution was centrifuged at 3,000 rpm for 10 min. To 1 ml of the supernatant, 2 ml of 1 N NaOH was added and fluorescence of the solution was measured at Ex 312 nm and Em 380 nm. PRP was prepared to 250,000 cell/μl as amounts of blood platelets with […] phosphate buffer solution and 4-hydroxyquinoline was used as standard for measurement.

CCCNC(CCC)Cc1ccc2c(c1)CCO2 (stereo not shown) [Compound No. 36, 1-(2,3-Dihydrobenzofuran-5-yl)-2-propylaminopentane Hydrochloride]
activity at 24 h, 10 µM [1]: 101 ± 2.24% | activity at 24 h, 100 µM [1]: 111 ± 6.58%

CCCC(Cc1ccc2c(c1)OCO2)Nc1ccc(C)cc1.Cl (stereo not shown) [Compound No. 33, 1-(1,3-Benzodioxol-5-yl)-2-p-toluidinopentane Hydrochloride]
Condition Avoidance Reflex (CARs) ([2]; 5 mg/kg s.c.): * .Arrow-up bold. | Intersignal Reactions (IRs) ([2]; 5 mg/kg s.c.): * .dwnarw. | activity at 24 h, 10 µM [1]: 94 ± 4.16% | activity at 24 h, 100 µM [1]: 152 ± 5.71%

CCCNC(CCC)Cc1csc2ccccc12.Cl (stereo not shown) [compound 39, 1-(3-Benzothienyl)-2-propylaminopentane Hydrochloride]
Release of dopamine, striatum ([3]; 0.01 mg/kg s.c.): 7.1 ± 0.15 nmol/g tissue, for 20 min | Release of dopamine, tuberculum olfactorium ([4]; 0.01 mg/kg s.c.): 10.9 ± 0.25 nmol/g tissue, for 20 min | Release of noradrenaline, locus coeruleus ([5]; 0.01 mg/kg s.c.): 4.1 ± 0.15 nmol/g tissue, for 20 min | Release of dopamine, substantia nigra ([6]; 0.01 mg/kg s.c.): 12.0 ± 0.34 nmol/g tissue, for 20 min | Escape Failures (EFs) ([2]; 1 mg/kg s.c.): *** .dwnarw. | Condition Avoidance Reflex (CARs) ([2]; 2.5 mg/kg s.c.): **** .Arrow-up bold. | Escape Failures (EFs) ([2]; 2.5 mg/kg s.c.): **** .dwnarw. | Release of serotonin, raphe ([7]; 0.01 mg/kg s.c.): 0.256 ± 0.01 nmol/g tissue, for 20 min

CCCNC(CCC)Cc1ccc2cc(OC)ccc2c1 (stereo not shown) [Compound No. 15]
Condition Avoidance Reflex (CARs) ([2]; 5 mg/kg s.c.): * .Arrow-up bold.

CCCNC(CCC)Cc1cc2ccccc2[nH]1 (stereo not shown) [Compound No. 19, 1-(Indol-2-yl)-2-propylaminopentane Hydrochloride]
activity at 24 h, 10 µM [1]: 82.4 ± 8.34% | activity at 24 h, 100 µM [1]: 180 ± 5.54%

CCCCNC(CCC)Cc1ccc2c(c1)OCO2.Cl (stereo not shown) [Compound No. 29, 1-(1,3-Benzodioxol-5-yl)-2-butylaminopentane Hydrochloride]
Condition Avoidance Reflex (CARs) ([2]; 2.5 mg/kg s.c.): * .Arrow-up bold. | Condition Avoidance Reflex (CARs) ([2]; 5 mg/kg s.c.): *** .Arrow-up bold. | Intersignal Reactions (IRs) ([2]; 5 mg/kg s.c.): *** .dwnarw. | activity at 24 h, 10 µM [1]: 103 ± 6.02% | activity at 24 h, 100 µM [1]: 101 ± 2.94%

CCCC(Cc1ccc2ccccc2c1)NCC(C)(C)C (stereo not shown) [Compound No. 14]
activity at 24 h, 10 µM [1]: 108 ± 4.18% | activity at 24 h, 100 µM [1]: 131 ± 7.08%

CCCNC(CCC)Cc1ccc2cc[nH]c2c1.Cl (stereo not shown) [compound 22, 1-(Indol-6-yl)-2-propylaminopentane Hydrochloride]
Release of dopamine, striatum ([3]; 0.01 mg/kg s.c.): 6.5 ± 0.06 nmol/g tissue, for 20 min | Release of dopamine, tuberculum olfactorium ([4]; 0.01 mg/kg s.c.): 9.7 ± 0.17 nmol/g tissue, for 20 min | Release of noradrenaline, locus coeruleus ([5]; 0.01 mg/kg s.c.): 4.8 ± 0.05 nmol/g tissue, for 20 min | Release of dopamine, substantia nigra ([6]; 0.01 mg/kg s.c.): 11.9 ± 0.39 nmol/g tissue, for 20 min | Condition Avoidance Reflex (CARs) ([2]; 0.5 mg/kg s.c.): * .Arrow-up bold. | Condition Avoidance Reflex (CARs) ([2]; 1 mg/kg s.c.): *** .Arrow-up bold. | Condition Avoidance Reflex (CARs) ([2]; 5 mg/kg s.c.): **** .Arrow-up bold. | Escape Failures (EFs) ([2]; 5 mg/kg s.c.): * .dwnarw. | Release of serotonin, raphe ([7]; 0.01 mg/kg s.c.): 0.322 ± 0.01 nmol/g tissue, for 20 min

CCCNC(CCC)Cc1ccc2c(c1)CCC2.Cl (stereo not shown) [Compound No. 37, 1-(Indan-5-yl)-2-propylaminopentane Hydrochloride]
Condition Avoidance Reflex (CARs) ([2]; 5 mg/kg s.c.): * .Arrow-up bold. | activity at 24 h, 10 µM [1]: 83.8 ± 5.65% | activity at 24 h, 100 µM [1]: 193 ± 8.51%

CCCNC(CCC)Cc1cc2ccccc2s1.Cl (stereo not shown) [compound 38, 1-(2-Benzothienyl)-2-propylaminopentane Hydrochloride]
Release of dopamine, striatum ([3]; 0.01 mg/kg s.c.): 7.9 ± 0.19 nmol/g tissue, for 20 min | Release of dopamine, tuberculum olfactorium ([4]; 0.01 mg/kg s.c.): 11.5 ± 0.14 nmol/g tissue, for 20 min | Release of noradrenaline, locus coeruleus ([5]; 0.01 mg/kg s.c.): 3.6 ± 0.05 nmol/g tissue, for 20 min | Release of dopamine, substantia nigra ([6]; 0.01 mg/kg s.c.): 14.0 ± 0.23 nmol/g tissue, for 20 min | Escape Failures (EFs) ([2]; 1 mg/kg s.c.): **** .dwnarw. | Condition Avoidance Reflex (CARs) ([2]; 2.5 mg/kg s.c.): **** .Arrow-up bold. | Intersignal Reactions (IRs) ([2]; 2.5 mg/kg s.c.): * .Arrow-up bold. | Release of serotonin, raphe ([7]; 0.01 mg/kg s.c.): 0.375 ± 0.02 nmol/g tissue, for 20 min

CCCC(Cc1ccc2c(c1)OCO2)NC(C)CC (stereo not shown) [Compound No. 30]
Condition Avoidance Reflex (CARs) ([2]; 5 mg/kg s.c.): **** .Arrow-up bold. | Intersignal Reactions (IRs) ([2]; 5 mg/kg s.c.): * .dwnarw. | activity at 24 h, 10 µM [1]: 99.5 ± 5.44% | activity at 24 h, 100 µM [1]: 138 ± 4.57%

CCCNC(CCC)Cc1ccc2c(c1)OCCO2 (stereo not shown) [Compound No. 35, 1-(1,4-Benzodioxan-6-yl)-2-propylaminopentane Hydrochloride]
activity at 24 h, 10 µM [1]: 103 ± 10.6% | activity at 24 h, 100 µM [1]: 147 ± 5.07%

CCCC(Cc1ccc2c(c1)OCO2)NC(CC)CC (stereo not shown) [Compound No. 31]
activity at 24 h, 10 µM [1]: 102.5 ± 0.84% | activity at 24 h, 100 µM [1]: 153 ± 4.35%

CCCNC(CC)Cc1ccc2ccccc2c1 (stereo not shown) [Compound No. 10]
Release of dopamine, striatum ([3]; 1.00 mg/kg s.c.): 3.3 ± 0.22 nmol/g tissue, for 20 min | Release of dopamine, tuberculum olfactorium ([4]; 1.00 mg/kg s.c.): 5.6 ± 0.35 nmol/g tissue, for 20 min | Release of noradrenaline, locus coeruleus ([5]; 1.00 mg/kg s.c.): 2.9 ± 0.15 nmol/g tissue, for 20 min | Release of dopamine, substantia nigra ([6]; 1.00 mg/kg s.c.): 6.2 ± 0.31 nmol/g tissue, for 20 min | inhibition at 10 µM [8]: 37.2% | Release of serotonin, raphe ([7]; 1.00 mg/kg s.c.): 0.603 ± 0.10 nmol/g tissue, for 20 min

From patent US6214859A, “Ethylamine derivatives” (Fujimoto Brothers Co., Ltd., priority 1997, dated 2001)
